Results on 14 compounds are retold here after US7173047B2, “Benzo (f) insoindol derivatives and their use as ep4 receptor ligands” (Glaxo Group Limited, priority 2000, dated 2007).

Where only a bound is given, the exact number is not on record here.

In one assay the target is T1, human EP4 receptor (Homo sapiens, UniProt P35408). The assay is described as follows: Human EP4 Scintillation Proximity Assay ([3H]-prostaglandin E2 radioligand binding). Set-up: expressed in transfected cells; host or cells: CHO cells infected with Semliki Forest Virus (SFV-1) particles; membranes. To be noted: membranes of CHO cells expressing human EP4 receptor; 1.25 nM [3H]-prostaglandin E2; pKi from IC50 by Cheng-Prusoff; read-out: pKi at EP4 receptors (converted). From the text: Quantification of radioligand binding by scintillation proximity assay (SPA) is a long-established principle. Briefly, the affinity of compounds for a receptor is assesssed by the specific competition between known quantities of radiolabelled ligand and compound for that receptor. Increasing concentrations of compound reduce the amount of radiolabel that binds to the receptor. This gives rise to a diminshing scintillation signal from SPA beads coated with membranes that bear the receptor. The signal may be detected with a suitable scintillation counter and the data generated may be analysed with suitable curve-fitting software.
T1 sequence (P35408 whole entry): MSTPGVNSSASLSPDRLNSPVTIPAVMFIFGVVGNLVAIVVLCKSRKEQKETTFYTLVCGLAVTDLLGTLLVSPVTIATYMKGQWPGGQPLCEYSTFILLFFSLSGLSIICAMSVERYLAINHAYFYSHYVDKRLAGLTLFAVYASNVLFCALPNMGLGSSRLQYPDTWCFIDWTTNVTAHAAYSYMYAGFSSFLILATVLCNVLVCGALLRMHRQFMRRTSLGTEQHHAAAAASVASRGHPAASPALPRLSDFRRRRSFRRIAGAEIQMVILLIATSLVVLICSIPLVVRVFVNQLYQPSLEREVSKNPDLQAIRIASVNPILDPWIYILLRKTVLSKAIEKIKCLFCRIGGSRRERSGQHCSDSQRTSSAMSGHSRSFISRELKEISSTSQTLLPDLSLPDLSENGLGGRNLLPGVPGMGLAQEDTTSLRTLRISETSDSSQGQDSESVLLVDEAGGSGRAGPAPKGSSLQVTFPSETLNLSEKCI
The human EP4 SPA assay (hereafter referred to as ‘the assay’) utilises membranes prepared from Chinese Hamster Ovary (CHO cells) infected with Semilki Forest Virus (SFV). Genetically engineered SFV-1 viral particles containing the genetic sequence of the human EP4 receptor were used to infect CHO cells resulting in expression of the receptor protein in cellular membranes. Cells washed free of media are homogenised in a pH-buffered medium containing peptidase inhibitors. A suitable buffer is of the following composition: 50 mM HEPES, 1 mM EDTA, 25 μg/ml bacitracin, 100 μM leupeptin, 1 mM PMSF, 2 μM Pepstatin A, pH adjusted to 7.4 with KOH. Following removal of cell debris by a low-speed centrifugation, a pellet of membranes is prepared by a high-speed (48000 g) centrifugation of the resulting supernatant. Membrane suspensions such as that described may be stored at −80° C. until used.
For assay, membranes expressing human EP4 receptors are diluted in a pH-buffered medium and mixed with SPA beads coated with a suitable substance to facilitate the adhesion of membranes to the beads. The concentrations of membrane protein and SPA beads chosen should result in SPA binding signal of at least 300 corrected counts per minute (CCPM) when tritiated radioligand at a concentration close to its Kd (affinity value) is combined with the mixture. Non-specific binding (nsb) may be determined by competition between the radiolabelled ligand and a saturating concentration of unlabelled ligand. In order to quantify the affinity of EP4 receptor ligands, compounds are diluted in a stepwise manner across the wells of a 96-well plate. Radioligand, compound, and unlabelled ligand are then added to a 96-well plate suitable for the measurement of SPA binding signals prior to the addition of bead/membrane mixture to initiate the binding reaction. Equilibrium may be achieved by incubation at room temperature for 120 minutes prior to scintillation counting. The data so generated may be analysed by means of a computerised curve-fitting routine in order to quantify the concentration of compound that displaces 50% of the specific radioligand binding (IC50). The affinity (pKi) of the compound may be calculated from the IC50 by application of the Cheng-Prusoff correction. Suitable reagents and protocols are: reaction buffer containing 50 mM HEPES, 10 mM MgCl2, pH adjusted to 7.4 with KOH; SPA beads coated with wheatgerm agglutinin; 1.25 nM [^3H]-prostaglandin E2 as radioligand; 10 μM prostaglandin E2 as unlabelled ligand; a three-fold dilution series of compound starting at 10 μM and ending at 0.3 nM is adequate.
In general terms: SPA uses beads or plates that emit light when radiolabelled molecules are held near them.
For `CCOc1c2c(c(OCC)c3ccccc13)C(=O)N(c1ccc(CC(=O)NS(=O)(=O)c3ccc(F)cc3)cc1)C2` [Example 1, N-{[4-(4,9-diethoxy-1-oxo-1,3-dihydro-2H-benzo[f]isoindol-2-yl)phenyl]acetyl}-4-fluorobenzenesulfonamide], the Ki was at most 100 nM.
Still for that read-out and setting: for `CCOc1c2c(c(OCC)c3ccccc13)C(=O)N(c1ccc(CC(=O)NS(=O)(=O)c3ccccc3)cc1)C2` [Example 3, N-{2-[4-(4,9-diethoxy-1-oxo-1,3-dihydro-2H-benzo[f]isoindol-2-yl)phenyl]acetyl}benzenesulfonamide] the value was at most 100 nM.
The same measure, in the same setting: for `CCOc1c2c(c(OCC)c3ccccc13)C(=O)N(c1ccc(CC(=O)NS(=O)(=O)c3ccccc3C)cc1)C2` [Example 4] the value was at most 100 nM.
The same measure, in the same setting: for `CCOc1c2c(c(OCC)c3ccccc13)C(=O)N(c1ccc(CC(=O)NS(=O)(=O)c3ccc(C)cc3OC)cc1)C2` [Example 9] the value was at most 100 nM.
In the case of `CCOc1c2c(c(OCC)c3ccccc13)C(=O)N(c1ccc(CC(=O)NS(=O)(=O)c3cccc(Br)c3)cc1)C2` [Example 10], the Ki was at most 100 nM.
The same measure, in the same setting: for `CCOc1c2c(c(OCC)c3ccccc13)C(=O)N(c1ccc(CC(=O)NS(=O)(=O)c3cc(Br)ccc3OC)cc1)C2` [Example 12] the value was at most 100 nM; for `CCOc1c2c(c(OCC)c3ccccc13)C(=O)N(c1ccc(CC(=O)NS(=O)(=O)c3cccc(OC)c3)cc1)C2` [Example 13], at most 100 nM.
On the same count and under the same terms, the figure for `CCOc1c2c(c(OCC)c3ccccc13)C(=O)N(c1ccc(CC(=O)NS(=O)(=O)c3ccccc3C)cc1)C2=O` [Example 14] is at most 100 nM.
On the same count and under the same terms, the figure for `CCOc1c2c(c(OCC)c3ccccc13)C(=O)N(c1ccc(CC(=O)NS(=O)(=O)c3ccccc3)cc1)C2=O` [Example 15] is at most 100 nM; for `CCOc1c2c(c(OCC)c3ccccc13)C(=O)N(c1ccc(CC(=O)NS(=O)(=O)c3cccc(Cl)c3)cc1)C2=O` [Example 16] it is at most 100 nM.
As to `CCOc1c2c(c(OCC)c3ccccc13)C(=O)N(c1ccc(CC(=O)NS(=O)(=O)c3cccnc3)cc1)C2` [Example 30], the Ki was at most 100 nM.
With `CCOC(=O)CS(=O)(=O)NC(=O)Cc1ccc(N2Cc3c(c(OCC)c4ccccc4c3OCC)C2=O)cc1` [Example 34], the Ki is at most 100 nM.
Still for that read-out and setting: for `CCOc1c2c(c(OCC)c3ccccc13)C(=O)N(c1ccc(CC(=O)NS(=O)(=O)c3cccs3)cc1)C2` [Example 35] the value was at most 100 nM; for `CCOc1c2c(c(OCC)c3ccccc13)C(=O)N(c1ccc(CC(=O)NS(=O)(=O)c3ccc4ccccc4c3)cc1)C2` [Example 37], at most 100 nM.

A further assay deals with T1, human EP4 receptor. Briefly: [125I]cAMP Scintillation Proximity Assay (EP4 antagonist assay, HEK-293 cells expressing recombinant human EP4 receptor). The format is cell-based. Also noted: expressed in transfected cells. To be noted: method of Arunlakshana and Schild, read-out: pKb (antagonist affinity) (converted). The procedure: The CAMP assay utilises HEK-293 cells expressing the recombinant human EP4 receptor, obtained from Receptor Biology, Inc. Beltsville, Md., USA. The cells were cultured in Dulbecco's Modified Eagle Medium—HAM F12 mix (DMEM-F12), containing 10% heat inactivated-foetal bovine serum (FBS) and 2 mM L-glutamine. The cells were either passaged into fresh medium or used in an assay once 90% confluency as determined visually had been achieved.
The cells were harvested by treatment with Versene, re-suspended in fresh culture medium and plated out to yield approximately 10,000 cells per well of a 96-well plate for overnight culture in culture medium additionally supplemented with 3 μM indomethacin. For assay, the culture medium was replaced with assay medium (DMEM-F12 containing 300 μM isobutylmethylxanthine (IBMX) and 3 μM indomethacin) and incubated for 30 minutes. Following this, antagonist was then added at various concentrations such that an entire agonist concentration-effect curve could be obtained in the presence of a single concentration of the antagonist. […] The amount of cAMP in each well was then determined by [^125I]cAMP scintillation proximity assay using a proprietary kit, obtained from Amersham, Buckinghamshire, UK, and according to the manufacturers instructions.
Data from cAMP assays were expressed as pmol CAMP per well. […]
For `CCOc1c2c(c(OCC)c3ccccc13)C(=O)N(c1ccc(CC(=O)NS(=O)(=O)c3ccc(F)cc3)cc1)C2` [Example 1, N-{[4-(4,9-diethoxy-1-oxo-1,3-dihydro-2H-benzo[f]isoindol-2-yl)phenyl]acetyl}-4-fluorobenzenesulfonamide], the Kb was at most 100 nM.
Same read-out and setting: the figure for `CCOc1c2c(c(OCC)c3ccccc13)C(=O)N(c1ccc(CC(=O)NS(=O)(=O)c3ccccc3)cc1)C2` [Example 3, N-{2-[4-(4,9-diethoxy-1-oxo-1,3-dihydro-2H-benzo[f]isoindol-2-yl)phenyl]acetyl}benzenesulfonamide] is at most 100 nM.
